Laboratory results as given in patent US7625890B2, “Substituted imidazo[4,5-c]pyridine compounds as Akt inhibitors” (SmithKline Beecham Corp., priority 2005, dated 2009).
Values after ≈ are worked out from the molar mass of the structure shown. Where a name gives a salt, the structure may show the parent alone.

Assay: Solubility
Assay type: physicochemical
Conditions: for solubility: aqueous buffer, 50 mM phosphate buffer, pH 7.4; for solubility, suitability for IV dosage forms: statement in words

| solubility | Structure (SMILES) | solubility, suitability for IV dosage forms |
| --- | --- | --- |
| 110 µM | CCn1c(-c2nonc2N)nc2c(C#CC(C)(C)O)ncc(OC[C@@H]3CNCCS3)c21 (single isomer, unassigned; enantiomer e1) [Example 3, 4-{2-(4-amino-1,2,5-oxadiazol-3-yl)-1-ethyl-7-[(2-thiomorpholinylmethyl)oxy]-1H-imidazo[4,5-c]pyridin-4-yl}-2-methyl-3-butyn-2-ol dihydrochloride (enantiomer E1)] | suitable for formulation into dosage forms for IV administration |
| 23 µM (≈ 10.5 µg/mL) | CCn1c(-c2nonc2N)nc2c(C#CC(C)(C)O)ncc(OC[C@@H]3CN(C)CCS3)c21 (single isomer, unassigned; enantiomer e1) [Example 7, 4-(2-(4-amino-1,2,5-oxadiazol-3-yl)-1-ethyl-7-{[(4-methyl-2-thiomorpholinyl)methyl]oxy}-1H-imidazo[4,5-c]pyridin-4-yl)-2-methyl-3-butyn-2-ol (enantiomer E1)] | – |
| 129 µM | CCn1c(-c2nonc2N)nc2c(C#CC(C)(C)O)ncc(OCC3CNCC(C)O3)c21 (stereo in doubt) [Example 9, 4-[2-(4-amino-1,2,5-oxadiazol-3-yl)-1-ethyl-7-({[(2R)-6-methyl-2-morpholinyl]methyl}oxy)-1H-imidazo[4,5-c]pyridin-4-yl]-2-methyl-3-butyn-2-ol, dihydrochloride] | suitable for formulation into dosage forms for IV administration |
| 210 µM (≈ 89.4 µg/mL) | CCn1c(-c2nonc2N)nc2c(C#CC(C)(C)O)ncc(OC[C@H]3CCCNC3)c21 [Example 1, 4-(2-(4-amino-1,2,5-oxadiazol-3-yl)-1-ethyl-7-{[(3S)-3-Piperidinylmethyl]oxy}-1H-imidazo[4,5-c]pyridin-4-yl)-2-methyl-3-butyn-2-ol] | suitable for formulation into dosage forms for IV administration |
| 188 µM | CCn1c(-c2nonc2N)nc2c(C#CC(C)(C)O)ncc(OC[C@H]3CNCCO3)c21 [Example 2, 4-(2-(4-amino-1,2,5-oxadiazol-3-yl)-1-ethyl-7-{[(2R)-2-morpholinylmethyl]oxy}-1H-imidazo[4,5-c]pyridin-4-yl)-2-methyl-3-butyn-2-ol dihydrochloric acid salt] | – |
| 154 µM (≈ 65.8 µg/mL) | CCn1c(-c2nonc2N)nc2c(C#CC(C)(C)O)ncc(OC[C@@H]3CNCCO3)c21 [Example 4, 4-(2-(4-amino-1,2,5-oxadiazol-3-yl)-1-ethyl-7-{[(2S)-2-morpholinylmethyl]oxy}-1H-imidazo[4,5-c]pyridin-4-yl)-2-methyl-3-butyn-2-ol] | suitable for formulation into dosage forms for IV administration |
| 83 µM | CCn1c(-c2nonc2N)nc2c(C#CC(C)(C)O)ncc(OCC3CCNC3)c21 (centres unmarked) [Example 5, 4-{2-(4-amino-1,2,5-oxadiazol-3-yl)-1-ethyl-7-[(3-Pyrrolidinylmethyl)oxy]-1H-imidazo[4,5-c]pyridin-4-yl}-2-methyl-3-butyn-2-ol, bis-trifluoroacetic acid salt] | – |
| 44 µM | CCn1c(-c2nonc2N)nc2c(C#CC(C)(C)O)ncc(OC[C@H]3CCCN(C)C3)c21 [Example 6, 4-[2-(4-amino-1,2,5-oxadiazol-3-yl)-1-ethyl-7-({[(3S)-1-methyl-3-piperidinyl]methyl}oxy)-1H-imidazo[4,5-c]pyridin-4-yl]-2-methyl-3-butyn-2-ol, dihydrochloride] | – |
| 34 µM (≈ 15 µg/mL) | CCn1c(-c2nonc2N)nc2c(C#CC(C)(C)O)ncc(OC[C@@H]3CN(C)CCO3)c21 [Example 8, 4-[2-(4-amino-1,2,5-oxadiazol-3-yl)-1-ethyl-7-({[(2S)-4-methyl-2-morpholinyl]methyl}oxy)-1H-imidazo[4,5-c]pyridin-4-yl]-2-methyl-3-butyn-2-ol] | – |
| 6 µM (≈ 2.73 µg/mL) | CCN1CCO[C@H](COc2cnc(C#CC(C)(C)O)c3nc(-c4nonc4N)n(CC)c23)C1 [Example 10, 4-[2-(4-amino-1,2,5-oxadiazol-3-yl)-1-ethyl-7-({[(2S)-4-ethyl-2-morpholinyl]methyl}oxy)-1H-imidazo[4,5-c]pyridin-4-yl]-2-methyl-3-butyn-2-ol] | – |
